Results reported in patent US20110165603A1, “SMALL MOLECULE FLUORESCENT SENSORS FOR DETECTION OF POST-TRANSLATIONALMODIFICATIONS AND PROTEIN INTERACTIONS IN BIOASSAYS” (Gyrasol Technologies Inc., priority 2008, published 2011).
Entries after “also recorded” stand apart in the source; their conditions may differ.

Assays:
[1] = target: recombinant PDE41A1A (Homo sapiens, UniProt P27815); assay: PDE biochemical inhibition assay with fluorescein-labeled cAMP and zirconyl chloride sensor; details: endpoint mode, PDE4A1A 3 nM, 2 μM fluorescein-labeled cAMP, 100 μM sensor, FIG. 21A
Description: Assays were conducted with fluorescein-labeled cAMP at 2 μM and sensor (zirconyl chloride) at 100 μM.
For biochemical assays, 2 μM fluorescein labeled cAMP was added to various concentrations of recombinant PDE4AIA and zirconyl chloride sensor was added (100 μM) following 1 hour of incubation at room temperature (FIG. 19A). […] Reactions were terminated by addition of 100 μM Zirconyl sensor. […] Reactions were terminated by addition of 100 μM Zirconyl sensor.

[2] = tested on: phosphodiesterase; assay: Multiplexed lysate assay: phosphodiesterase mediated cleavage of fluorescein-labeled cAMP; assay type: biochemical, mouse; details: 2 μg lysate, 1.5 μM cAMP substrate, FIG. 24B
Description: (§1) In the presence of cAMP, PKA activity is stimulated resulting in phosphorylation of labeled kemptide substrate and an increase in the delta RFU of the kemptide (right axis). PDE4A 1A hydrolyzes c-AMP to AMP resulting in an increase in the delta RFU (left axis). In the presence of the PDE inhibitor IBMX, hydrolysis of cAMP is inhibited resulting in hight concentrations of cAMP and higher PKA activities. FIG. 24B is a line graph of the change in relative fluorescence units (delta RFU) in fluorescien-labelled cAMP (1.5 μM, left axis) and Chromeo642-labeled LRRASLG (3 μM, right axis) caused by PKA present in 2 μg lysate in the presence of varying amounts of the non-selective PDE inhibitor IBMX.
(§2) Multiplexing can be accomplished using electron transfer quenching with zirconyl chloride sensor and 2 μM fluorescein labeled cAMP simultaneously with 2 μM TAMRA labeled cGMP in various concentration of mouse brain lysate.
(§3) The assay platform can be used to monitor activities of enzymes of various classes, and thus is a novel tool to connect different braches of signaling. As outlined in the schematic FIG. 24A, a phsphodiesterase-mediated cleavage of cAMP is inhibited by IBMX. As a result, increasing amounts of cAMP can bind to the regulatory domain of its downstream target, PKA. Upon binding, the regulatory subunits disassociate from the catalytic subunit and PKA becomes catalytically active.

[3] = tested on: PKA present in 2 μg lysate; assay: Multiplexed lysate assay: PKA phosphorylation of Chromeo642-labeled LRRASLG; assay type: biochemical, mouse; details: 3 μM substrate, FIG. 24B
Description: as §1, §2, §3

Chain of recombinant PDE41A1A (P27815 1-647 isoform P27815-4): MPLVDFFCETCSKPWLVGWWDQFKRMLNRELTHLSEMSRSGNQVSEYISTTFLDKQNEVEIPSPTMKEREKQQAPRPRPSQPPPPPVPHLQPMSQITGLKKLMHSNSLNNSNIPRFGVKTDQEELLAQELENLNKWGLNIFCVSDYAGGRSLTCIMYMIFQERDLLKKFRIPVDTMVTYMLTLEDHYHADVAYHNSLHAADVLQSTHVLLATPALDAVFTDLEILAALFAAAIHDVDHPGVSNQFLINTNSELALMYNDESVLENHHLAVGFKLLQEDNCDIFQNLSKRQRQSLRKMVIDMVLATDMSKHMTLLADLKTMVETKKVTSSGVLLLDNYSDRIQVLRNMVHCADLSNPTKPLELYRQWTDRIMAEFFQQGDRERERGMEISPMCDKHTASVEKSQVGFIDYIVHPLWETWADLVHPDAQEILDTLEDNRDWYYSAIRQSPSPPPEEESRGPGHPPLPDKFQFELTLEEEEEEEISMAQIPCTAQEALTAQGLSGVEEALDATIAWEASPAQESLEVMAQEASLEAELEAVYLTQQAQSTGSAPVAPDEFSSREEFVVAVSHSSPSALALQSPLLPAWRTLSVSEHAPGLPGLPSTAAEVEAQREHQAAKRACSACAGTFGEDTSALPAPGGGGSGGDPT

Inhibition values [1]: closely matched literature values
SMILES: CC(C)Cn1c(=O)n(C)c(=O)c2[nH]cnc21 [IBMX]
PDE activity (delta RFU of fluorescein-labeled cAMP) as a function of inhibitor concentration [2]: decreasing activity of phosphodiesterase mediated cleavage of cAMP; also recorded: PDE activity decreased with increasing amounts of IBMX
PKA activity (delta RFU of Chromeo642-labeled LRRASLG) as a function of inhibitor concentration [3]: increasing phosphorylation of the PKA substrate Chromeo-GLRRASLG; also recorded: PKA activity increases with increasing amount of IBMX
